Results from publication PMC8219695 (Nature Communications, 2021).
Where “and” joins values, the source holds several entries; their conditions need not be identical. Equal values may be shown once.

Legend:
mMOR [1] = molecular target: T1, mMOR (Mus musculus, UniProt P42866); test: [125I]BNtxA radioligand competition binding, mouse MOR; settings: mean ± SEM, n = 3; [125I]BNtxA; read-out: Ki ± SEM mMOR
T1 construct: signal peptide (heterologous, not specified) (N); expressed in transfected cells; pcDNA3.1(+) construct made in house

mKOR = molecular target: T2, mKOR (Mus musculus, UniProt P33534); test: [125I]BNtxA radioligand competition binding, mouse KOR; settings: mean ± SEM, n = 3; [125I]BNtxA; read-out: Ki ± SEM mKOR
T2 construct: expressed in transfected cells; membranes

mDOR [2] = molecular target: T3, mDOR (Mus musculus, UniProt P32300); test: [125I]BNtxA radioligand competition binding, mouse DOR; settings: mean ± SEM, n = 3; [125I]BNtxA; read-out: Ki ± SEM mDOR
T3 construct: expressed in transfected cells

mMOR [3] = molecular target: T1, mMOR; test: CAMYEL BRET cAMP agonist assay at mMOR; assay type: cell-based; settings: mMOR; for cAMP %: single replicates, source data Fig 6b, listed as C11-F-7OH (22)
hMOR [4] = molecular target: T4, hMOR (Homo sapiens, UniProt P35372); test: CAMYEL BRET cAMP agonist assay at hMOR; assay type: cell-based; settings: for cAMP %: hMOR, single replicates, source data Fig 6c, listed as C11-F-7OH (22)
T4 construct: expressed in transfected cells; plasmid a gift from Dr. Nevin Lambert

mMOR [5] = molecular target: T1, mMOR; test: CAMYEL BRET antagonism assay at mMOR (inhibition of DAMGO); assay type: cell-based; settings: for Antagonist activity at mMOR, raw signal (single replicate values): source data of Fig 8a and Table 5, listed as C11-F-7OH (22);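 as to Antagonist activity at mMOR, raw signal (single replicate values): BRET signal rises as cAMP falls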
hMOR [6] = molecular target: T4, hMOR; test: cell-based
mDOR [7] = molecular target: T3, mDOR; test: CAMYEL BRET cAMP agonist assay at mDOR; assay type: cell-based; settings: for Agonist activity of 7OH analogs at mDOR: single replicate values, Supplementary Figure 7B
hDOR = hDOR (Homo sapiens, UniProt P41143); test: CAMYEL BRET cAMP agonist assay at hDOR; assay type: cell-based; settings: single replicate values, Supplementary Figure 7A
[8] = Log[drug] (M) -13, cAMP inhibition as % of DAMGO

CC[C@@H]1CN2CC[C@@]3(O)C(=Nc4cc(F)cc(OC)c43)[C@@H]2C[C@@H]1/C(=C\OC)C(=O)OC [11-F-7OH (22), 11-Fluoro-7-hydroxymitragynine]
Ki (mMOR [1]): 0.0137 ± 0.001 µM | Ki (mKOR): 0.021 ± 0.0032 µM | Ki (mDOR [2]): 0.0358 ± 0.002 µM | cAMP % (mMOR [3]; Log[drug] (M) -5): 18.6612% and 13.4113% and 8.551% and 30.7876% and 22.9326% and 28.8572% and 20.3955% and 21.355% and 24.4984% | cAMP % (mMOR [3]; Log[drug] (M) -6): 25.4304% and 7.798% and 14.3775% and 23.1589% and 22.9335% and 14.5614% and 26.2834% and 10.6621% and 13.744% | cAMP % (mMOR [3]; Log[drug] (M) -7): 4.791% and 10.9715% and 7.661% and 21.2718% and 20.4101% and 18.8827% and 13.0494% and 8.164% and 16.1975% | cAMP % (mMOR [3]; Log[drug] (M) -8): 1.666% and 6.134% and 7.138% and 7.653% and 6.95% and 8.768% and 3.363% and -0.1101% and 16.7433% | cAMP % (mMOR [3]; Log[drug] (M) -9): 0.8145% and -7.096% and 6.2815% and 3.889% and -6.162% and 2.273% and -4.16% and 0.06827% and 4.092% | cAMP % (mMOR [3]; Log[drug] (M) -10): 13.6379% and 11.7751% and 16.0473% and 16.5566% and -2.169% and 7.345% and 0.7238% and 2.035% and 11.7782% | cAMP % (mMOR [3]; Log[drug] (M) -11): 20.0905% and 12.8035% and 2.268% and 1.246% and -1.253% and 18.3526% and 6.666% and -0.8467% and -5.17% | cAMP % (mMOR [3]; [8]): 13.7634% and 17.6649% and 9.384% and 11.7249% and -6.349% and 6.202% and -0.02358% and 4.732% and 0.04545% | Emax (mMOR [3]; maximal inhibitory effect on cAMP levels relative to DAMGO): 21% | EC50 (mMOR [3]; n = 3, read-out: EC50): 0.097 µM | EC50 (hMOR [4]): 0.0294 µM | Emax (hMOR [4]): 57% | cAMP % (hMOR [4]; Log[drug] (M) -5): 51.264% and 45.9513% and 58.1795% and 79.6476% and 68.1188% and 65.3013% and 52.2398% and 64.2986% and 49.6622% | cAMP % (hMOR [4]; Log[drug] (M) -6): 56.7369% and 57.602% and 54.9333% and 67.8605% and 67.5648% and 53.8544% and 46.4412% and 33.3921% and 44.9213% | cAMP % (hMOR [4]; Log[drug] (M) -7): 48.1791% and 37.8893% and 39.1827% and 53.5374% and 50.3292% and 51.3541% and 36.9409% and 28.5036% and 44.2511% | cAMP % (hMOR [4]; Log[drug] (M) -8): 15.2392% and 22.4344% and 23.7656% and 25.1778% and 17.6434% and 19.3494% and 5.0692% and 13.2412% and 14.3735% | cAMP % (hMOR [4]; Log[drug] (M) -9): 4.113% and -7.3719% and 5.178% and 7.448% and -11.6959% and 4.5476% and -1.276% and -3.182% and 19.3939% | cAMP % (hMOR [4]; Log[drug] (M) -10): 2.241% and -1.74% and -0.501% and 4.727% and -5.3691% and 0.6426% and 5.237% and 2.017% and 7.517% | cAMP % (hMOR [4]; Log[drug] (M) -11): 9.244% and 1.716% and -4.082% and 4.12% and 6.65% and 8.68% and 7.357% and 0.1804% and -7.538% | cAMP % (hMOR [4]; [8]): 3.279% and -3.532% and 2.642% and -0.9485% and 1.819% and 3.865% and 2.979% and -0.05442% and 0.9166% | IC50 (mMOR [5]): 0.26 µM | Antagonist activity at mMOR, raw signal (single replicate values) (mMOR [5]; Log[drug] (M) -5): 0.03322 and 0.03306 and 0.04505 and 0.03409 and 0.04171 and 0.03584 and 0.0591 and 0.05619 and 0.05325 | Antagonist activity at mMOR, raw signal (single replicate values) (mMOR [5]; Log[drug] (M) -6): 0.06086 and 0.0551 and 0.06302 and 0.07276 and 0.06512 and 0.0766 and 0.06642 and 0.06116 and 0.08827 | Antagonist activity at mMOR, raw signal (single replicate values) (mMOR [5]; Log[drug] (M) -7): 0.1571 and 0.1681 and 0.1534 and 0.1529 and 0.1704 and 0.1581 and 0.1507 and 0.1426 and 0.1477 | Antagonist activity at mMOR, raw signal (single replicate values) (mMOR [5]; Log[drug] (M) -8): 0.2123 and 0.2016 and 0.2091 and 0.1893 and 0.2024 and 0.2047 and 0.1631 and 0.1656 and 0.156 | Antagonist activity at mMOR, raw signal (single replicate values) (mMOR [5]; Log[drug] (M) -9): 0.2046 and 0.2165 and 0.2136 and 0.191 and 0.2101 and 0.1873 and 0.1659 and 0.1752 and 0.1707 | Antagonist activity at mMOR, raw signal (single replicate values) (mMOR [5]; Log[drug] (M) -10): 0.2086 and 0.2076 and 0.2154 and 0.2091 and 0.201 and 0.211 and 0.1814 and 0.1819 and 0.178 | Antagonist activity at mMOR, raw signal (single replicate values) (mMOR [5]; Log[drug] (M) -11): 0.2091 and 0.1929 and 0.2264 and 0.2001 and 0.2059 and 0.2094 and 0.1761 and 0.1779 and 0.1909 | IC50 (hMOR [6]): 0.59 µM | Agonist activity of 7OH analogs at mDOR (mDOR [7]; Log[drug] (M) -5): 47.1654 and 47.1068 and 50.635 and 37.9412 and 42.0474 and 46.3733 and 28.2147 and 32.1025 and 39.5821 | Agonist activity of 7OH analogs at mDOR (mDOR [7]; Log[drug] (M) -6): 47.099 and 41.9872 and 38.3786 and 51.107 and 48.5979 and 35.3577 and 31.3142 and 12.8186 and 22.449 | Agonist activity of 7OH analogs at mDOR (mDOR [7]; Log[drug] (M) -7): 30.1688 and 32.9372 and 28.2956 and 32.0377 and 31.8373 and 22.4143 and 6.1677 and 13.5479 and 12.0733 | Agonist activity of 7OH analogs at mDOR (mDOR [7]; Log[drug] (M) -8): 13.6765 and -5.445 and -5.108 and 13.4452 and 4.719 and 1.33 and -3.9215 and 5.792 | Agonist activity of 7OH analogs at mDOR (mDOR [7]; Log[drug] (M) -9): -4.727 and 10.4426 and 11.2028 and 10.7963 and -1.115 and -6.036 and 3.188 and 1.136 and -3.325 | Agonist activity of 7OH analogs at mDOR (mDOR [7]; Log[drug] (M) -10): -4.225 and 3.531 and 0.6939 and 1.589 and -3.887 and 2.298 and 4.3674 and 7.155 and 10.722 | Agonist activity of 7OH analogs at mDOR (mDOR [7]; Log[drug] (M) -11): 12.0117 and 1.607 and 13.3008 and 5.9086 and 13.4698 and 3.259 and 9.679 and 6.216 and 9.4253 | Agonist activity of 7OH analogs at mDOR (mDOR [7]; Log[drug] (M) -13): -0.8332 and 15.6965 and -5.824 and 1.284 and 2.644 and 6.574 and -5.56 and 1.8034 and 3.757 | EC50 (mDOR [7]; mDOR cAMP BRET, read-out: EC50): 0.102 µM | Emax (mDOR [7]; read-out: Emax): 41% | Agonist activity of 7OH analogs at hDOR (hDOR; Log[drug] (M) -5): 35.2154 and 37.8271 and 20.1668 and 20.0459 and 27.5701 and 32.2497 and 21.4666 and 22.179 and 20.5682 | Agonist activity of 7OH analogs at hDOR (hDOR; Log[drug] (M) -6): 34.2535 and 17.385 and 29.3707 and 32.2245 and 19.3851 and 24.4275 and 22.3041 and 14.4734 and 13.6453 | Agonist activity of 7OH analogs at hDOR (hDOR; Log[drug] (M) -7): 30.3483 and 21.8663 and 22.0325 and 12.2379 and 10.9328 and 13.3432 and 3.216 and 7.058 and 2.651 | Agonist activity of 7OH analogs at hDOR (hDOR; Log[drug] (M) -8): 2.89 and -16.6078 and 13.7181 and 1.455 and 8.915 and -8.089 and -4.58 and 2.715 and 18.3397 | Agonist activity of 7OH analogs at hDOR (hDOR; Log[drug] (M) -9): 8.34 and 5.8475 and -3.905 and -8.29 and 12.1949 and 6.438 and 2.013 and 5.417 | Agonist activity of 7OH analogs at hDOR (hDOR; Log[drug] (M) -10): 4.091 and -4.63 and 8.526 and 11.2871 and -1.147 and 9.891 and 2.3909 and 3.977 and 19.4184
